Assay results as given in patent US20230000870A1, “METHODS OF TREATING CANCER IN BIOMARKER-IDENTIFIED PATIENTS WITH INHIBITORS OF CYCLIN-DEPENDENT KINASE 7 (CDK7)” (Syros Pharmaceuticals, Inc., priority 2019, published 2023).

Columns and labels:
[1] = biological target: T1, CDK12 (aa686-1082)/Cyclin K complex (Homo sapiens, UniProt Q9NYV4); assay: CDK12 kinase inhibition assay (Caliper/LabChip EZ Reader); type: biochemical; settings: CDK12 (aa686-1082)/Cyclin K 50 nM, ATP 2 mM, 3 hr at 27° C.
T1 construct: CDK12 (aa686-1082)/Cyclin K complex
T1 sequence (Q9NYV4 686-1082): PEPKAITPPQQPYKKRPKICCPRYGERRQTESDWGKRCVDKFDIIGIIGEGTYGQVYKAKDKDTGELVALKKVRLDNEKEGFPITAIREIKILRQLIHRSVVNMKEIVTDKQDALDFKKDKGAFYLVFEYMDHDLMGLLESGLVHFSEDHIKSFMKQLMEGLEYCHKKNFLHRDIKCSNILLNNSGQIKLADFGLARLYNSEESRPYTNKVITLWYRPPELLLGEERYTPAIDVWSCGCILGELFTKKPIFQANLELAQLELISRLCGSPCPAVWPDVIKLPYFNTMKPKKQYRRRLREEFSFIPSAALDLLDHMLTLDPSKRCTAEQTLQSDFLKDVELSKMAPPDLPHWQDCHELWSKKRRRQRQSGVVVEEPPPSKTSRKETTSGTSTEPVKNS
T1 sequence (O75909 whole entry partner, the tested form may be a part): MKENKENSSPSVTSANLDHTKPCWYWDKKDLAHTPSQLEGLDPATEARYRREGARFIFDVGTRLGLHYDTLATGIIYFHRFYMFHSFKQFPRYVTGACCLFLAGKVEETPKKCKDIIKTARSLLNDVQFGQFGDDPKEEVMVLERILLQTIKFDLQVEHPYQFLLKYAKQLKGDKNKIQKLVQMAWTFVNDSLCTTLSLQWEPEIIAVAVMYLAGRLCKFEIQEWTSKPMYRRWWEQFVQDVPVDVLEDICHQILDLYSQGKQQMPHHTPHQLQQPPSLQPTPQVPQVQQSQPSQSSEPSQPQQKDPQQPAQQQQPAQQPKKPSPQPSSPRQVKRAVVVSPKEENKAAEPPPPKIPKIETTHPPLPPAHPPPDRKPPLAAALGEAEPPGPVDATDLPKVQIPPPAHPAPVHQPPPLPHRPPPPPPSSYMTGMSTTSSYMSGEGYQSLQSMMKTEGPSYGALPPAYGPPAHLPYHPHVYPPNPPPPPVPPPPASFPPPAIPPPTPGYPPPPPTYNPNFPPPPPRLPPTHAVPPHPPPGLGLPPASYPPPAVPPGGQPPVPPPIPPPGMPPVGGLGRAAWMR
Summary of the method: (§1)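 Caliper/LabChip mobility-shift kinase assays at 27° C. CDK9/Cyclin T1 8 nM with 2 μM 5-FAM-CDK9tide, 10 mM MgCl2, 15 min; CDK12/Cyclin K 50 nM with 5-FAM-CDK9tide 2 μM, 2 mM MgCl2, 3 hr; CDK2/Cyclin E1 0.5 nM with 5-FAM-CDK7tide 2 μM, 2 mM MgCl2, 35 min; CDK7 35 min.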

A673 cells = assay: Inhibition of proliferation of A673 cells (CyQUANT, 72 hour); type: cell-based, human; settings: read-out: Inhibition of Proliferation of A673 Cells (calculated IC50)
Summary of the method: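 Human Ewing's sarcoma A673 cells in DMEM + 10% FBS + 1 mM sodium pyruvate, 37 °C, 5% CO2. Compounds in 0.5-log serial dilutions, stated range 4 μM to […], for 72 h. Anti-proliferative effect read with CyQUANT per kit directions.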

CDK9/Cyclin T1 complex = CDK9/Cyclin T1 complex (Homo sapiens, UniProt P50750); assay: CDK9 kinase inhibition assay (Caliper/LabChip EZ Reader); type: biochemical; settings: CDK9/Cyclin T1 8 nM, ATP 2 mM, 15 min at 27° C.
Chain of CDK9/Cyclin T1 complex (P50750 whole entry): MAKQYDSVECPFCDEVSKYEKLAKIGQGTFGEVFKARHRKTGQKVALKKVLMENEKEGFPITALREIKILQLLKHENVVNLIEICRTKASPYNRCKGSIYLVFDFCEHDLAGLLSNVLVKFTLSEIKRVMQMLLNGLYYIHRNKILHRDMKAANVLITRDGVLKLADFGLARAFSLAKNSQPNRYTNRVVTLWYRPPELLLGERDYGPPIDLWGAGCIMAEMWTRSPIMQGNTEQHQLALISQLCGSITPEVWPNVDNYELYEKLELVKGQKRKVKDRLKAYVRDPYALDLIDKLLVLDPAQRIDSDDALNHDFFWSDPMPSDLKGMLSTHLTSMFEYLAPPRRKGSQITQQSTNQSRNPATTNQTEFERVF
Chain of CDK9/Cyclin T1 complex (O60563 whole entry partner): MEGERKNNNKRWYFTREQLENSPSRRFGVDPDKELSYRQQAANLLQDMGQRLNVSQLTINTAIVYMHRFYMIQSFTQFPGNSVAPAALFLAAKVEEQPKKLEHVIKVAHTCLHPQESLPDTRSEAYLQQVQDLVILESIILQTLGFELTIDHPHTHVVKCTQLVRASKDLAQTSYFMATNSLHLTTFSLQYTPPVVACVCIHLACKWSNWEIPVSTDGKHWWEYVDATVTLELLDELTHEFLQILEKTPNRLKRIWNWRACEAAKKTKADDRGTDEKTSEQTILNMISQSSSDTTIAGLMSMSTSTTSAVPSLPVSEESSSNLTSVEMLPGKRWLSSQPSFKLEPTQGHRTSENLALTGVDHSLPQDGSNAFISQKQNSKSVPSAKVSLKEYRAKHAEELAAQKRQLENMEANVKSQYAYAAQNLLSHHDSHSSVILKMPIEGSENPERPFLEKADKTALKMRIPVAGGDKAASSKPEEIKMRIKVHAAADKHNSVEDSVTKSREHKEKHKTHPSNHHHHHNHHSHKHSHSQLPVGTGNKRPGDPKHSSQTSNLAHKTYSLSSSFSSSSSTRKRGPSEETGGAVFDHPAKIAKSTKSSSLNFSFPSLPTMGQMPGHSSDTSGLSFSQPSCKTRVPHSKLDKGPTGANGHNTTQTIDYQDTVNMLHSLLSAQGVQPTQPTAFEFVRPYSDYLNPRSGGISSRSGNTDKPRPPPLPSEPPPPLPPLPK
Summary of the method: as §1

HCC70 cells = assay: Inhibition of proliferation of HCC70 cells (CyQUANT Direct, 72 hour); type: cell-based, human; settings: read-out: Inhibition of Proliferation of HCC70 Cells (calculated IC50)
Summary of the method: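 Human triple-negative breast cancer cells grown in RPMI-1640 + 10% FBS at 37 °C, 5% CO2, treated with compounds from 4 μM to […] in 0.5 log steps. Proliferation over 72 h was read by CyQUANT Direct.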

[2] = biological target: CDK7/Cyclin H/MAT1 complex (Homo sapiens, UniProt P50613); assay: CDK7 kinase inhibition assay (Caliper/LabChip EZ Reader); type: biochemical; settings: CDK7/Cyclin H/MAT1 6 nM, ATP 2 mM, 35 min at 27° C.
Chain of CDK7/Cyclin H/MAT1 complex (P50613 whole entry): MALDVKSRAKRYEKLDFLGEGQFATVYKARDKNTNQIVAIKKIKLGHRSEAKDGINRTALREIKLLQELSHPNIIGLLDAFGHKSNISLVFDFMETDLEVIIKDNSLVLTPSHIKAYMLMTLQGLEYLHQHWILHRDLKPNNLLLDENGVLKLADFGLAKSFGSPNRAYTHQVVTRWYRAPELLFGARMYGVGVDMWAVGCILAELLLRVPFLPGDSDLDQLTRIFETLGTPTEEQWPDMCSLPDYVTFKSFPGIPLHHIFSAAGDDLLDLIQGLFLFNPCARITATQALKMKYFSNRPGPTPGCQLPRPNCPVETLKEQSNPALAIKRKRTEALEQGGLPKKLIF
Chain of CDK7/Cyclin H/MAT1 complex (P51946 whole entry partner): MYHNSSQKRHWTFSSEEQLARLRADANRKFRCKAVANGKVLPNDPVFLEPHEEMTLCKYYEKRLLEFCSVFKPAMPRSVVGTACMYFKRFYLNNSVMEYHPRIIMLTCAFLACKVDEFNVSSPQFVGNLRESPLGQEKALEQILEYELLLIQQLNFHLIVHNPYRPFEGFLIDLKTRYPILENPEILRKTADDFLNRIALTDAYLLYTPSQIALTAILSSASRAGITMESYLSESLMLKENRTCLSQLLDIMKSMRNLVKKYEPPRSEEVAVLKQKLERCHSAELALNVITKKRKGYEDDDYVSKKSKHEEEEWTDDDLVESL
Chain of CDK7/Cyclin H/MAT1 complex (P51948 whole entry partner): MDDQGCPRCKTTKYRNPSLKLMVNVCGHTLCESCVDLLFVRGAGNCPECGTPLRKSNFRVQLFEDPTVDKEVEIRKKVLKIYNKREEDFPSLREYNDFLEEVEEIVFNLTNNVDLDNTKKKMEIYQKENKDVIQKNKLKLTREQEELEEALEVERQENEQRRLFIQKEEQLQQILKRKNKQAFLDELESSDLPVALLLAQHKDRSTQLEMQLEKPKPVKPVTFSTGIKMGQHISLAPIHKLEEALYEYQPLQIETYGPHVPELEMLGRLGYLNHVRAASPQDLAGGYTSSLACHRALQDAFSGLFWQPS
Summary of the method: as §1

CDK2/Cyclin E1 complex = CDK2/Cyclin E1 complex (Homo sapiens, UniProt P24941); assay: CDK2 kinase inhibition assay (Caliper/LabChip EZ Reader); type: biochemical; settings: CDK2/Cyclin E1 0.5 nM, ATP 2 mM, 35 min at 27° C.
Summary of the method: as §1

SMILES | IC50 [1] | IC50 (A673 cells) | IC50 (CDK9/Cyclin T1 complex) | IC50 (HCC70 cells) | IC50 [2] | IC50 (CDK2/Cyclin E1 complex)
O=C1CCC(Nc2ncc(Cl)c(-c3c[nH]c4ccccc34)n2)CN1 (stereo not drawn) [Compound 159] | 200 to 5000 nM | 200 to 5000 nM | 200 to 5000 nM | 1000 to 5000 nM | 20 to 200 nM | 20 to 200 nM
CCN1CCCC(Nc2ncc(C(F)(F)F)c(-c3c[nH]c4cc(C#N)ccc34)n2)C1 (stereo not drawn) [Compound 284] | 200 to 5000 nM | 20 to 200 nM | 200 to 5000 nM | 100 to 1000 nM | < 20 nM | 200 to 5000 nM
N#Cc1ccc2c(-c3nc(NC4CCCNC4)ncc3Cl)c[nH]c2c1 (stereo not drawn) [Compound 161] | 200 to 5000 nM | < 20 nM | 200 to 5000 nM | < 100 nM | < 20 nM | 200 to 5000 nM
N#CC1CCN(C(=O)c2ccc3c(-c4nc(NC5CCCNC5)ncc4C(F)(F)F)c[nH]c3c2)C1 (stereo not drawn) [Compound 292] | 200 to 5000 nM | 20 to 200 nM | 200 to 5000 nM | 100 to 1000 nM | < 20 nM | 200 to 5000 nM
Cc1cccc2c(-c3nc(NC4CCCNC4)ncc3Cl)c[nH]c12 (stereo not drawn) [Compound 112] | 20 to 200 nM | < 20 nM | 200 to 5000 nM | < 100 nM | < 20 nM | 200 to 5000 nM
CC1(O)CCN(C(=O)c2ccc3c(-c4nc(NC5CCCNC5)ncc4C(F)(F)F)c[nH]c3c2)C1 (stereo not drawn) [Compound 221] | ≥ 5000 nM | 200 to 5000 nM | ≥ 5000 nM | 100 to 1000 nM | < 20 nM | ≥ 5000 nM
COCn1cc(-c2nc(NC3CCCNC3)ncc2C(F)(F)F)c2ccc(C#N)nc21 (stereo not drawn) [Compound 283] | ≥ 5000 nM | 200 to 5000 nM | ≥ 5000 nM | 1000 to 5000 nM | 200 to 5000 nM | ≥ 5000 nM
CCS(=O)(=O)c1cccc2c(-c3nc(N[C@H]4CCCNC4)ncc3C(F)(F)F)c[nH]c12 [Compound 286] | 200 to 5000 nM | 200 to 5000 nM | 200 to 5000 nM | 1000 to 5000 nM | < 20 nM | 200 to 5000 nM
CS(=O)(=O)c1cccc2c(-c3nc(NC4CCCNC4)ncc3C(F)(F)F)c[nH]c12 (stereo not drawn) [Compound 141] | 200 to 5000 nM | < 20 nM | 200 to 5000 nM | < 100 nM | < 20 nM | 200 to 5000 nM
CCc1cnc(NC2CCCNC2)nc1-c1c[nH]c2cc(C#N)ccc12 (stereo not drawn) [Compound 246] | ≥ 5000 nM | 200 to 5000 nM | ≥ 5000 nM | 100 to 1000 nM | < 20 nM | ≥ 5000 nM
Clc1cnc(NC2CCCNC2)nc1-c1cnn2ccccc12 (stereo not drawn) [Compound 104] | 20 to 200 nM | 20 to 200 nM | 200 to 5000 nM | 100 to 1000 nM | 20 to 200 nM | 200 to 5000 nM
Fc1cccc2c(-c3nc(NC4CCCNC4)ncc3Cl)c[nH]c12 (stereo not drawn) [Compound 107] | 20 to 200 nM | < 20 nM | 200 to 5000 nM | 100 to 1000 nM | 20 to 200 nM | 200 to 5000 nM
CNC(=O)c1cccc2c(-c3nc(N[C@H]4CCCNC4)ncc3C(F)(F)F)c[nH]c12 [Compound 173] | 200 to 5000 nM | 20 to 200 nM | 200 to 5000 nM | 100 to 1000 nM | < 20 nM | 200 to 5000 nM
CCc1cnc(NC2CCCNC2)nc1-c1n[nH]c2nc(C#N)ccc12 (stereo not drawn) [Compound 277] | 200 to 5000 nM | 20 to 200 nM | 200 to 5000 nM | 100 to 1000 nM | < 20 nM | 200 to 5000 nM
CCc1cnc(NC2CCCNC2)nc1-c1c[nH]c2c(F)cccc12 (stereo not drawn) [Compound 144] | 200 to 5000 nM | 20 to 200 nM | 200 to 5000 nM | 100 to 1000 nM | < 20 nM | 200 to 5000 nM
FC(F)(F)c1cnc(NC2CNCC(c3nnc4ccccn34)C2)nc1-c1c[nH]c2ccccc12 (stereo not drawn) [Compound 267] | 200 to 5000 nM | < 20 nM | 200 to 5000 nM | < 100 nM | 20 to 200 nM | 200 to 5000 nM
FC(F)(F)c1cnc(NC2CCCNC2)nc1-c1n[nH]c2ccccc12 (stereo not drawn) [Compound 103] | 20 to 200 nM | 20 to 200 nM | 200 to 5000 nM | < 100 nM | < 20 nM | 200 to 5000 nM
O=C(c1ccc2c(-c3nc(NC4CCCNC4)ncc3C(F)(F)F)c[nH]c2c1)N1CCCC1 (stereo not drawn) [Compound 278] | 200 to 5000 nM | 20 to 200 nM | ≥ 5000 nM | 100 to 1000 nM | 20 to 200 nM | 200 to 5000 nM
CCc1cnc(NC2CCCNC2)nc1-c1c[nH]c2nc(C#N)ccc12 (stereo not drawn) [Compound 287] | ≥ 5000 nM | 20 to 200 nM | ≥ 5000 nM | 100 to 1000 nM | < 20 nM | ≥ 5000 nM
O=C(c1ccc2c(-c3nc(N[C@H]4CCCNC4)ncc3C(F)(F)F)c[nH]c2c1)N1CC[C@@H](O)C1 [Compound 250] | 200 to 5000 nM | 200 to 5000 nM | ≥ 5000 nM | 1000 to 5000 nM | < 20 nM | 200 to 5000 nM
CS(=O)(=O)c1ccc2c(-c3nc(NC4CCCNC4)ncc3C(F)(F)F)c[nH]c2c1 (stereo not drawn) [Compound 199] | 200 to 5000 nM | < 20 nM | 200 to 5000 nM | 100 to 1000 nM | < 20 nM | 200 to 5000 nM
CC(C)c1cnc(NC2CCCNC2)nc1-c1c[nH]c2ccccc12 (stereo not drawn) [Compound 139] | ≥ 5000 nM | 200 to 5000 nM | ≥ 5000 nM | 1000 to 5000 nM | 20 to 200 nM | ≥ 5000 nM
CS(=O)(=O)c1c(C#N)ccc2c(-c3nc(N[C@H]4CCCNC4)ncc3C(F)(F)F)c[nH]c12 [Compound 232] | 200 to 5000 nM | < 20 nM | 200 to 5000 nM | < 100 nM | < 20 nM | 200 to 5000 nM
FC(F)n1ccc(-c2ccc3c(-c4nc(NC5CCCNC5)ncc4C(F)(F)F)c[nH]c3c2)n1 (stereo not drawn) [Compound 289] | 200 to 5000 nM | 20 to 200 nM | 200 to 5000 nM | 100 to 1000 nM | 20 to 200 nM | 200 to 5000 nM
OC1CCC(c2cccc3c(-c4nc(NC5CCCNC5)ncc4C(F)(F)F)c[nH]c23)CC1 (stereo not drawn) [Compound 185] | 200 to 5000 nM | < 20 nM | 200 to 5000 nM | < 100 nM | < 20 nM | 20 to 200 nM
CCc1cnc(NC2CCCNC2)nc1-c1c[nH]c2c(S(C)(=O)=O)c(C#N)ccc12 (stereo not drawn) [Compound 263] | ≥ 5000 nM | 20 to 200 nM | ≥ 5000 nM | 100 to 1000 nM | < 20 nM | ≥ 5000 nM
N#Cc1ccc2c(-c3nc(NC4CCCNC4)ncc3C(F)(F)F)c[nH]c2n1 (stereo not drawn) [Compound 251] | 200 to 5000 nM | < 20 nM | 200 to 5000 nM | < 100 nM | < 20 nM | 200 to 5000 nM
FC(F)(F)c1cnc(NC2CCCNC2)nc1-c1c[nH]c2cnc(Cl)cc12 (stereo not drawn) [Compound 165] | 200 to 5000 nM | 20 to 200 nM | 200 to 5000 nM | 100 to 1000 nM | < 20 nM | 200 to 5000 nM
N#Cc1ccc2c(-c3nc(N[C@@H]4CCCNC4)ncc3C(F)(F)F)c[nH]c2c1-c1ccnnc1 [Compound 261] | 200 to 5000 nM | < 20 nM | 200 to 5000 nM | < 100 nM | 20 to 200 nM | 200 to 5000 nM
Fc1ccc2[nH]cc(-c3nc(NC4CCCNC4)ncc3Cl)c2c1 (stereo not drawn) [Compound 109] | 20 to 200 nM | 20 to 200 nM | 200 to 5000 nM | 100 to 1000 nM | < 20 nM | 200 to 5000 nM
